The results in this text go back to PMC3621900 (Nature Communications, 2013).

This assay concerns nicotinic acetylcholine receptor (nAChR). Nature of the assay: whole-cell patch clamp. Set-up: species or system Apis mellifera. (In general: Patch clamp records ionic current or voltage across a cell membrane.)

Consider `O=[N+]([O-])NC1=NCCN1Cc1ccc(Cl)nc1` [imidacloprid], for which inhibition was half-maximal at 295 nM (IC50).
